Test system: serum response element (SRE)
Experiment: SRE.L-Luciferase Reporter Assay
Assay type: cell-based
Details: Homo sapiens; Table C; HEK-293T cells co-transfected with Gα12Q231L, SRE.L and pRL-TK plasmids; 19 hrs treatment
Method: Biological activity of the compounds disclosed herein were assessed in the SRE.L luciferase reporter assay. HEK-293T cells were co-transfected with 2 ng of the Gα12Q231L expression plasmid along with 50 ng of the SRE.L and 7 ng of the pRL-TK luciferase reporter plasmids, as described in the Materials and Methods section. Cells were treated with 0 (vehicle, DMSO alone), 1, 3, 10, 30, and 100 μM of a compound disclosed herein for 19 hrs after transfection before lysis. Luminescence was determined as described in the Materials and Methods section. Just before cell lysis, the viability of the cells was measured using the WST-1 cell proliferation reagent as described in the Materials and Methods section. Data are expressed as percentage of inhibition (DMSO alone=0%). The experiments were performed three separate times to achieve n=3 in triplicate.

With `O=C(O)CCCSc1nnc(-c2ccccc2C(F)(F)F)o1` [Compound A5, 4-((5-(2-(trifluoromethyl)phenyl)-1,3,4-oxadiazol-2-yl)thio)butanoic acid] as the compound, how does the IC50 read?
The IC50 was 6200 nM.

For `O=C(O)CCCSc1nnc(-c2cccc(C(F)(F)F)c2Cl)o1` [Compound A20, 4-((5-(2-chloro-3-(trifluoromethyl)phenyl)-1,3,4-oxadiazol-2-yl)thio)butanoic acid], which IC50 is on record?
Its IC50 is 330 nM.

Which IC50 does the source give for `O=C(O)CCCSc1nnc(-c2ccc(OC(F)F)cc2)o1` [Compound A23, 4-((5-(4-(difluoromethoxy)phenyl)-1,3,4-oxadiazol-2-yl)thio)butanoic acid] here?
Its IC50 is 130 nM.

For `O=C(O)CCCSc1nnc(-c2ccc(OC(F)(F)F)cc2Cl)o1` [Compound A14, 4-((5-(2-chloro-4-(trifluoromethoxy)phenyl)-1,3,4-oxadiazol-2-yl)thio)butanoic acid], which IC50 is on record?
Its IC50 is 3.6 nM.

For `O=C(O)CCCSc1nnc(-c2ccc(Cl)cc2Cl)o1` [CCG-232120, reference compound], which IC50 is on record?
The IC50 was 1.8 nM.

Which IC50 does the source give for `O=C(O)CCCSc1nnc(-c2ccc(Cl)cc2O)o1` [Compound C, 4-((5-(4-chloro-2-hydroxyphenyl)-1,3,4-oxadiazol-2-yl)thio)butanoic acid] here?
Its IC50 is 0.02 nM.

Which IC50 does the source give for `CC(C)(F)c1ccc(-c2nnc(SCCCC(=O)O)o2)cc1` [Compound A22] here?
Its IC50 is 9.5 nM.

With `O=C(O)CCCSc1nnc(-c2ccc(OCC(F)(F)F)cc2)o1` [Compound A17, 4-((5-(4-(2,2,2-trifluoroethoxy)phenyl)-1,3,4-oxadiazol-2-yl)thio)butanoic acid] as the compound, how does the IC50 read?
The IC50 was 240 nM.

With `O=C(O)CCCSc1nnc(-c2ccc(OCC(F)(F)F)cc2Cl)o1` [Compound A12, 4-((5-(2-chloro-4-(2,2,2-trifluoroethoxy)phenyl)-1,3,4-oxadiazol-2-yl)thio)butanoic acid] as the compound, how does the IC50 read?
The IC50 was 0.8 nM.

With `O=C(O)CCCSc1nnc(-c2ccccc2F)o1` [Compound A6, 4-((5-(2-fluorophenyl)-1,3,4-oxadiazol-2-yl)thio)butanoic acid] as the compound, how does the IC50 read?
Its IC50 is 211 nM.

Which IC50 does the source give for `O=C(O)CCCSc1nnc(-c2ccc(C(F)F)cc2)o1` [Compound A18, 4-((5-(4-(difluoromethyl)phenyl)-1,3,4-oxadiazol-2-yl)thio)butanoic acid] here?
The IC50 was 160 nM.

For `O=C(O)CCCSc1nnc(-c2ccc(OC(F)(F)F)cc2)o1` [Compound A19, 4-((5-(4-(trifluoromethoxy)phenyl)-1,3,4-oxadiazol-2-yl)thio)butanoic acid], which IC50 is on record?
Its IC50 is 78 nM.

Same assay, conditions: Homo sapiens; Table D; HEK-293T cells co-transfected with Gα12Q231L, SRE.L and pRL-TK plasmids; 19 hrs treatment

With `COC(=O)CCCSc1nnc(-c2ccc(C3CC3)cc2Cl)o1` [Compound A10, Methyl 4-((5-(2-chloro-4-cyclopropylphenyl)-1,3,4-oxadiazol-2-yl)thio)butanoate] as the compound, how does the IC50 read?
The IC50 was 3 nM.

For `O=C(O)CCCSc1nnc(-c2ccc(OCC3COC3)cc2Cl)o1` [Compound A15, 4-((5-(2-chloro-4-(oxetan-3-ylmethoxy)phenyl)-1,3,4-oxadiazol-2-yl)thio)butanoic acid], which IC50 is on record?
The IC50 was 35 nM.

With `O=C(O)CCCSc1nnc(-c2cc(C3CC3)ccc2Cl)o1` [Compound A4, 4-((5-(2-chloro-5-cyclopropylphenyl)-1,3,4-oxadiazol-2-yl)thio)butanoic acid] as the compound, how does the IC50 read?
The IC50 was 11 nM.

For `CC1(COc2ccc(-c3nnc(SCCCC(=O)O)o3)c(Cl)c2)COC1` [Compound A16, 4-((5-(2-chloro-4-((3-methyloxetan-3-yl)methoxy)phenyl)-1,3,4-oxadiazol-2-yl)thio)butanoic acid], which IC50 is on record?
The IC50 was 42 nM.

With `O=C(O)CCCSc1nnc(-c2ccc(OCC3CC3)cc2Cl)o1` [Compound A7, 4-((5-(2-chloro-4-(cyclopropylmethoxy)phenyl)-1,3,4-oxadiazol-2-yl)thio)butanoic acid] as the compound, how does the IC50 read?
The IC50 was 0.02 nM.

For `O=C(O)CCCSc1nnc(-c2ccc(C3CC3)cc2Cl)o1` [Compound A1, 4-((5-(2-chloro-4-cyclopropylphenyl)-1,3,4-oxadiazol-2-yl)thio)butanoic acid], which IC50 is on record?
The IC50 was 0.0012 nM.

Same assay, conditions: Homo sapiens; Table E; HEK-293T cells co-transfected with Gα12Q231L, SRE.L and pRL-TK plasmids; 19 hrs treatment

Which IC50 does the source give for `O=C(O)[C@H]1CC[C@@H](Sc2nnc(-c3ccc(Cl)cc3Cl)o2)CC1` [Compound B9, cis-4-((5-(2,4-dichlorophenyl)-1,3,4-oxadiazol-2-yl)thio)cyclohexanecarboxylic acid] here?
The IC50 was over 100000 nM.

For `O=C(O)[C@H]1C[C@H](Sc2nnc(-c3ccc(C4CC4)cc3Cl)o2)C1` [Compound B4, trans-3-((5-(2-chloro-4-cyclopropylphenyl)-1,3,4-oxadiazol-2-yl)thio)cyclobutanecarboxylic acid], which IC50 is on record?
Its IC50 is 2.6 nM.

Which IC50 does the source give for `O=C(O)[C@H]1C[C@@H](Sc2nnc(-c3ccc(C(F)(F)F)cc3Cl)o2)C1` [Compound B5, cis-3-((5-(2-chloro-4-(trifluoromethyl)phenyl)-1,3,4-oxadiazol-2-yl)thio)cyclobutanecarboxylic acid] here?
Its IC50 is 42 nM.

For `O=C(O)[C@@H]1CC[C@H](Sc2nnc(-c3ccc(Cl)cc3Cl)o2)C1` (relative stereo) [Compound B7, cis-3-((5-(2,4-dichlorophenyl)-1,3,4-oxadiazol-2-yl)thio)cyclopentanecarboxylic acid], which IC50 is on record?
The IC50 was 15 nM.

Which IC50 does the source give for `O=C(O)[C@H]1C[C@@H](Sc2nnc(-c3ccc(C4CC4)cc3Cl)o2)C1` [Compound B3, cis-3-((5-(2-chloro-4-cyclopropylphenyl)-1,3,4-oxadiazol-2-yl)thio)cyclobutanecarboxylic acid] here?
The IC50 was 0.46 nM.

Which IC50 does the source give for `O=C(O)[C@H]1CC[C@H](Sc2nnc(-c3ccc(Cl)cc3Cl)o2)C1` (relative stereo) [Compound B8, trans-3-((5-(2,4-dichlorophenyl)-1,3,4-oxadiazol-2-yl)thio)cyclopentanecarboxylic acid] here?
Its IC50 is over 100000 nM.

Which IC50 does the source give for `O=C(O)[C@H]1C[C@@H](Sc2nnc(-c3ccc(Cl)cc3Cl)o2)C1` [Compound B2, cis-3-((5-(2,4-Dichlorophenyl)-1,3,4-oxadiazol-2-yl)thio)cyclobutanecarboxylic acid] here?
The IC50 was 4.9 nM.

With `O=C(O)[C@H]1C[C@H](Sc2nnc(-c3ccc(C(F)(F)F)cc3Cl)o2)C1` [Compound B6, trans-3-((5-(2-chloro-4-(trifluoromethyl)phenyl)-1,3,4-oxadiazol-2-yl)thio)cyclobutanecarboxylic acid] as the compound, how does the IC50 read?
Its IC50 is 1000 nM.

With `O=C(O)[C@H]1CC[C@H](Sc2nnc(-c3ccc(Cl)cc3Cl)o2)CC1` [Compound B10, trans-4-((5-(2,4-dichlorophenyl)-1,3,4-oxadiazol-2-yl)thio)cyclohexanecarboxylic acid] as the compound, how does the IC50 read?
Its IC50 is over 100000 nM.

For `O=C(O)[C@H]1C[C@H](Sc2nnc(-c3ccc(Cl)cc3Cl)o2)C1` [Compound B1, trans-3-((5-(2,4-dichlorophenyl)-1,3,4-oxadiazol-2-yl)thio)cyclobutanecarboxylic acid], which IC50 is on record?
Its IC50 is 140 nM.

Test system: C57BL/6J mice
Experiment: In vivo testing for antifibrotic effects (bleomycin skin injections)
Details: skin of bleomycin-injected mice, Masson's trichrome, dermal thickness; A1 3 or 10 mg/kg PO daily, fourteen days; FIG. 2
Method: C57BL/6J mice were ordered from Jackson labs for delivery at 15-16 weeks of age. Mice were preconditioned with supplemental chow for two weeks prior to start of experiment. Mice were randomized by weight into four groups (vehicle, A1 (3 mg/kg), A1 (10 mg/kg), PBS). Each group consisted of two cages with four mice per cage. Drug stock solutions were aliquoted and stored at 4° C. for the duration of the study. Aliquots were warmed to 37° C. and briefly vortexed prior to filling the gavage syringes. Vehicle and A1 groups received daily bleomycin injections (0.1 mL, ID) each afternoon in a defined area of shaved dorsal skin. PBS control group received daily injections (0.1 mL, ID) of PBS in the afternoon. Mice were anesthetized with ketamine/xylazine for ID injections. […]
Fixed skin was paraffin embedded and sectioned at the University of Michigan Comprehensive Cancer Center Histology Core. […] Stained sections were analyzed with an Olympus BX51\DP72 microscope. Dermal thickness was determined by measuring the maximal distance between the epidermal-dermal junction and the dermal-subcutaneous fat junction. […]
Skin sections were weighed and hydrolyzed in 6M HCl at 120° C. for three hours. […] Absorbance was measured at 560 nm using a Synergy HT microplate reader (BioTek Instruments). […]

Which collagen thickness does the source give for `O=C(O)CCCSc1nnc(-c2ccc(C3CC3)cc2Cl)o1` [Compound A1, 4-((5-(2-chloro-4-cyclopropylphenyl)-1,3,4-oxadiazol-2-yl)thio)butanoic acid] here?
The collagen thickness was “reduction”.

Same assay, conditions: skin of bleomycin-injected mice; A1 3 or 10 mg/kg PO daily, fourteen days; FIG. 1

Which hydroxyproline content does the source give for `O=C(O)CCCSc1nnc(-c2ccc(C3CC3)cc2Cl)o1` [Compound A1, 4-((5-(2-chloro-4-cyclopropylphenyl)-1,3,4-oxadiazol-2-yl)thio)butanoic acid] here?
The hydroxyproline content was “reduction”.

Test system: not listed separately
Experiment: MLM metabolic stability (half-life)
Assay type: in vitro ADME, mice
Details: mouse, mouse liver microsomes (MLM), 1 μM compound, beta-NADPH 1 mM, 60 min, LC-MS, read-out: MLM T1/2
Method: Compounds (1 μM) were incubated with MLM in the presence of beta-NADPH (1 mM) for 60 min. The remaining drug concentration was measured using LC-MS using multiple reaction monitoring (MRM) mode. Both initial and overall disappearance rate and half-lives were calculated. […] Verapamil was run as a positive control in every assay; its half-life could not exceed 4 min or the assay was considered invalid.

For `O=C(O)CCCSc1nnc(-c2ccc(OC3CC3)cc2Cl)o1` [Compound A8, 4-((5-(2-chloro-4-cyclopropoxyphenyl)-1,3,4-oxadiazol-2-yl)thio)butanoic acid], which half-life at 1 μM is on record?
Its half-life at 1 μM is over 1 h.

For `O=C(O)CCCSc1nnc(-c2ccc(C(F)(F)F)cc2Cl)o1` [Compound A2], which half-life at 1 μM is on record?
Its half-life at 1 μM is over 1 h.

For `O=C(O)[C@H]1C[C@@H](Sc2nnc(-c3ccc(Cl)cc3Cl)o2)C1` [Compound B2, cis-3-((5-(2,4-Dichlorophenyl)-1,3,4-oxadiazol-2-yl)thio)cyclobutanecarboxylic acid], which half-life at 1 μM is on record?
The half-life at 1 μM was over 1 h.

For `O=C(O)CCCSc1nnc(-c2ccc(C3CC3)cc2Cl)o1` [Compound A1, 4-((5-(2-chloro-4-cyclopropylphenyl)-1,3,4-oxadiazol-2-yl)thio)butanoic acid], which half-life at 1 μM is on record?
Its half-life at 1 μM is 0.783 h.

Which half-life at 1 μM does the source give for `O=C(O)CCCSc1nnc(-c2ccc(OCC(F)(F)F)cc2Cl)o1` [Compound A12, 4-((5-(2-chloro-4-(2,2,2-trifluoroethoxy)phenyl)-1,3,4-oxadiazol-2-yl)thio)butanoic acid] here?
The half-life at 1 μM was over 1 h.
